In patent US9598448B2, “Osmium (II) arene imino anti-cancer complexes” (University of Warwick, priority 2010, dated 2017):
“Also recorded” adds a separate entry of the source.

How the values were obtained:
[1] = system: A2780/cis ovarian (cisplatin-resistant); test: MTT growth inhibition assay, A2780/cis; type: cell-based, human; details: 96 h
Procedure: (§1) Tumor cell growth inhibition was assessed using the MTT assay.^13 2×10^3 cells were inoculated into a 96-well plate and incubated overnight at 37° C. in a humidified atmosphere containing 5% CO2. Complexes were solubilised in DMSO as above, and then diluted in complete cell culture medium to give a broad range of concentrations. Cisplatin was included in the screen as a comparator. Medium was removed from each well and replaced with complex or control solutions, and the plates then incubated for a further 96 hours. After 96 h culture medium was removed and 200 μL of 0.5 mg mL^−1 MTT solution (Sigma) in complete medium added to each well. Following further 4 h incubation, the solution was removed from each well and 150 μL of DMSO (Sigma) added to solubilise the formazan crystals resulting from MTT conversion. Absorbance values for the resulting solutions were read at 550 nm on a microplate reader and cell survival calculated as the absorbance of treated cells divided by the control. Results were expressed in terms of IC50 values (i.e. concentration of compound required to kill 50% of cells) and all experiments were performed in triplicate.
(§2) The following human cancer cell lines were cultured in RPMI 1640 cell culture medium supplemented with 1 mM sodium pyruvate, 2 mM L-glutamine and 10% fetal bovine serum (all from Sigma): A549 non-small cell lung, HCT-116 colon, MCF-7 breast, PC-3 prostate (all from LGC Promochem, Teddington, UK), A2780/cis ovarian (cisplatin-resistant) and RT-112 bladder (both from ECACC, Salisbury, UK).

[2] = system: A549 non-small cell lung; test: MTT growth inhibition assay, A549; type: cell-based, human; details: 96 h
Procedure: as §1, §2

[3] = system: HCT-116 colon; test: MTT growth inhibition assay, HCT-116; type: cell-based, human; details: 96 h
Procedure: as §1, §2

[4] = system: MCF-7 breast; test: MTT growth inhibition assay, MCF-7; type: cell-based, human; details: 96 h
Procedure: as §1, §2

[5] = system: PC-3 prostate; test: MTT growth inhibition assay, PC-3; type: cell-based, human; details: 96 h
Procedure: as §1, §2

[6] = system: RT-112 bladder; test: MTT growth inhibition assay, RT-112; type: cell-based, human; details: MTT, 96 h
Procedure: as §1, §2

[7] = system: Leukemia HL-60 (TB); test: NCI 60-cell line screen, HL-60 (TB); type: cell-based, human; details: 48 h
Procedure: (§3) The cells were treated for 48 h at five concentrations ranging from 0.01 to 100 μM. Three endpoints were calculated: GI 50 (the concentration inhibits cell growth by 50%): […]

[8] = system: Leukemia MOLT-4; test: NCI 60-cell line screen, MOLT-4; type: cell-based, human; details: Leukemia MOLT-4, 48 h
Procedure: as §3

[9] = system: colon cancer OoLO 205; test: NCI 60-cell line screen, colon cancer line; type: cell-based, human; details: colon cancer OoLO 205, 48 h
Procedure: as §3

[10] = system: tubulin; test: Tubulin polymerization assay; type: biochemical; details: Osmium Compounds at 10 μM; 37° C., 60 min
Procedure: To follow the anticancer mechanism indicated by COMPARE, We have investigated whether osmium complexes can interacted directly with tubulin.
A Cytoskeleton tubulin polymerization assay kit (catalog no BK004) was used in the tubulin polymerization study. Briefly, 10 μL of general tubulin buffer (80 mM PIPES, pH 6.9, 2 mM MgCl2, and 0.5 mM EGTA) containing osmium compound, colchicine or taxol was pipetted into the prewarmed 96 well microplate. Tubulin (defrosted to room temperature from −80° C. and then placed on ice before use) was diluted with tubulin polymerization buffer with 1 mM GTP to a final concentration of 4 mg mL^−1. Diluted tubulin (100 μL) was added into the wells containing osmium compound, colchicine or taxol. Diluted tubulin (100 μL) mixed with general tubulin buffer (10 μL) served as control. The absorbance at 340 nm was read immediately with a Tecan microplate reader.

[11] = system: microtubules in A2780 human ovarian cancer cell line; test: Immunofluorescence of microtubules by confocal microscopy; type: cell-based; details: 24 h treatment, 1 μM
Procedure: A2780 Cells were seeded on Lab-Tek™ Chamber Slides (Thermo Scientific Nunc) 10,000 cells/chamber, after 24 h incubation, osmium compound [Os(η^6-bip)(2-F-Azpy)I]PF6 at different concentrations were added and incubate for another 24 h. Cells were fixed with 4% formaldehyde in PBS (20 min, 310 K), then rinsed with PBS (3×2 mL×2 min), and permeabilized with 0.1% Triton X-100 solution (PBS solution) for 15 min at ambient temperature. The cells were blocked with blocking buffer (2 mg/mL BSA, overnight at […]), and then, the cell monolayers were incubated (1 h, 310 K) with monoclonal anti-α-tubulin-Alexa 488 (4 μg/mL) (Invitrogen Molecular Probles, Catalog No. 32-2588). After the incubation, the cells were washed with PBS and the immunofluorescence was detected using a Leica SP5 fluorescence confocal microscope, with 100× objective.

[12] = system: Balb/c immunodeficient nude mice bearing HCT-116 tumours; test: Evaluation of in vivo toxicity in nude mouse HCT-116 xenograft model; details: i.v. day 0, doses from 2 up to 40 mg kg^−1, monitored 15 days
Procedure: Female Balb/c immunodeficient nude mice (Harlan, Loughborough, UK) aged 6-12 weeks were used. Mice received Harlan 2018 diet (Harlan) and water ad libitum. Mice were kept in cages in an air-conditioned room with regular alternating cycles of light and darkness. All animal procedures were carried out under a project license issued by the UK Home Office and UKCCCR guidelines (Workman P, Twentyman P, Balkwill F et al: United Kingdom Co-ordinating Committee on Cancer Research (UKCCCR) Guidelines for the Welfare of Animals in Experimental Neoplasia (Second Edition). Br J Cancer 77: 1-10, 1998) were followed throughout.
HCT-116 was used in the study. Tumours were excised from a donor animal, placed in sterile physiological saline containing antibiotics and cut into small fragments of approximately 2 mm^3. Under brief general inhalation anaesthesia, fragments were implanted in the […] abdominal flank of each mouse using a trocar. Once the tumours could accurately be measured using callipers (mean tumour volume of approximately 50 mm^3), treatment commenced. Complexes 3 and 6 were solubilised in 10% DMSO; 5% Tween-80; 85% saline and were administered intravenously to groups of 2 mice on day 0. Animals were weighed frequently and monitored for any deleterious effects over a period of 15 days.

[13] = system: HCT-116 colon adenocarcinoma s.c. xenograft model; test: In vivo efficacy in HCT-116 s.c. xenograft model
[14] = 40.0 mg kg^−1, single intravenous injection

Q: How did the IC50 [1] turn out when “[(η^6-p-cym)Os(Azpy-NMe2)I]PF6 [Complex 6]” was run?
A: < 300 nM

Q: And the IC50 [2]?
A: < 300 nM

Q: And the IC50 [3]?
A: < 300 nM

Q: And the IC50 [4]?
A: 79 nM

Q: And the IC50 [5]?
A: 600 nM

Q: And the IC50 [6]?
A: < 300 nM

Q: And the GI50 [7]?
A: < 50 nM

Q: And the GI50 [8]?
A: < 50 nM

Q: What about the GI50 [9] of the same substance?
A: < 50 nM

Q: What about the “Inhibition of Tubulin Polimerziation” value [10] of the same substance?
A: 28.6%

Q: What about the “inhibition of microtubule formation in cells” value [11] of the same substance?
A: inhibition forming microtubules were observed

Q: What about the “toxicity / deleterious effects” value [12] of the same substance?
A: no evident toxicity; also recorded: negligible deleterious effects

Q: And the “Maximum % weight loss” value [13, 14]?
A: 8%

Q: And the “Median tumour doubling time” value [13, 14]?
A: 6.2 days

Q: What about the “day of maximum % weight loss” value [13, 14] of the same substance?
A: 1 days

Q: What about the toxicity ([13]; single i.v. 40 mg/kg) of the same substance?
A: negligible toxicity

Q: What about the tumour growth delay ([13]; single i.v. 40 mg/kg, compared to the untreated control (p<0.01)) of the same substance?
A: statistically significant tumour growth delay
